These results are taken from US11142529B2 (priority 2013, dated 2021).

The format of data set [1] is in vivo, Long Evans rats. The following applies: i.v. The method, then: (§1) Food and water were available ad libitum.
For plasma exposures, blood samples were centrifuged at 14000 rpm for 16 minutes. After centrifuging, 50 ul of supernatant (plasma) from each sample was added to 200 μl of acetonitrile plus 0.1% formic acid. […] Samples were sonicated for 5 minutes in an ultrasonic water bath, followed by centrifugation for 30 minutes, at 16000 RPM. 100 ul of supernatant was removed from each sample vial and placed in a new glass auto sample vial, followed by the addition of 300 μl of sterile water (pH 6.5).

In the next data set the test system is aged-impaired (AI) rats. Briefly: Radial Arm Maze (RAM) behavioral task, two-hour delay (Example 107A). The format is in vivo, rat. The following applies: 3 mg/kg ip. The method, then: The effects of methyl 3,5-diphenylpyridazine-4-carboxylate on the in vivo spatial memory retention of aged-impaired (AI) rats were assessed in a Radial Arm Maze (RAM) behavioral task using vehicle control and four different dosage levels of methyl 3,5-diphenylpyridazine-4-carboxylate (0.1 mg/kg, 0.3 mg/kg, 1 mg/kg and 3 mg/kg, ip). RAM behavioral tasks were performed on eight AI rats. All five treatment conditions (vehicle and four dosage levels) were tested on all eight rats.
The RAM apparatus used consisted of eight equidistantly-spaced arms. An elevated maze arm (7 cm width×75 cm length) projected from each facet of an octagonal center platform (30 cm diameter, 51.5 cm height). Clear side walls on the arms were 10 cm high and were angled at […] to form a trough. A food well (4 cm diameter, 2 cm deep) was located at the distal end of each arm. Froot Loops™ (Kellogg Company) were used as rewards. Blocks constructed of Plexiglas™ (30 cm height×12 cm width) could be positioned to prevent entry to any arm. Numerous extra maze cues surrounding the apparatus were also provided.
The AI rats were initially subjected to a pre-training test (Chappell et al. Neuropharmacology 37: 481-487, 1998). […]

The next data set has as its target T1, GABAAα5 receptor (Rattus norvegicus, UniProt P18508+P19969).
T1 construct: occupancy in the hippocampus (a region of high GABAAα5 receptor density); from tissue; host or cells: rat brain in vivo; hippocampus versus cerebellum
The experiment in a line: GABAA α5 receptor occupancy with Ro 15-4513 tracer (Example 107B). The class given is in vivo, Long Evans rats.
From the text: as §1

For another data set, the target named is α5-containing GABAA R (Homo sapiens, UniProt P18507+P31644). The following applies: cited from earlier work.
Chain of α5-containing GABAA R (P31644 32-462): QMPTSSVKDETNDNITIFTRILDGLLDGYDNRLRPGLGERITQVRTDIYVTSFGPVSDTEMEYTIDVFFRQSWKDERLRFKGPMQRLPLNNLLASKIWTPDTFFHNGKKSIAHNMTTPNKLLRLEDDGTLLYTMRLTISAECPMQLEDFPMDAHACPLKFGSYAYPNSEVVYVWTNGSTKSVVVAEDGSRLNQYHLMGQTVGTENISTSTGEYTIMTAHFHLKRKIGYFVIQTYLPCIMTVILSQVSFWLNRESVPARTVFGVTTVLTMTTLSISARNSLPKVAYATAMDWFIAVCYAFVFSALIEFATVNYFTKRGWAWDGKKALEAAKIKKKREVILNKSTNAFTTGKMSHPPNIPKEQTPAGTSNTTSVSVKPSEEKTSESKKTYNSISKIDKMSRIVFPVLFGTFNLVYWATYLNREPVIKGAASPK
Chain of α5-containing GABAA R (P28472 26-473 partner): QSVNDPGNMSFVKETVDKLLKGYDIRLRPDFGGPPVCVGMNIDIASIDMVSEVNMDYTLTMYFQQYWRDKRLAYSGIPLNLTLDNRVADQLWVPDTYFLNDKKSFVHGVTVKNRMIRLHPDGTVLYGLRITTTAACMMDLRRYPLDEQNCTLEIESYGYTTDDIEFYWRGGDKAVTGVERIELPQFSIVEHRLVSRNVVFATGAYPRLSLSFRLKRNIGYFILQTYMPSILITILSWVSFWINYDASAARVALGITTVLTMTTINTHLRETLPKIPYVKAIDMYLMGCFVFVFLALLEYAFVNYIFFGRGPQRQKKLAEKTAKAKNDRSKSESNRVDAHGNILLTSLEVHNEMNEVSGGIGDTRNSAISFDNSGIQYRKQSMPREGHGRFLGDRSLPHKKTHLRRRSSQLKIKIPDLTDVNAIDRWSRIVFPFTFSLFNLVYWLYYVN
Chain of α5-containing GABAA R (P18507 40-475): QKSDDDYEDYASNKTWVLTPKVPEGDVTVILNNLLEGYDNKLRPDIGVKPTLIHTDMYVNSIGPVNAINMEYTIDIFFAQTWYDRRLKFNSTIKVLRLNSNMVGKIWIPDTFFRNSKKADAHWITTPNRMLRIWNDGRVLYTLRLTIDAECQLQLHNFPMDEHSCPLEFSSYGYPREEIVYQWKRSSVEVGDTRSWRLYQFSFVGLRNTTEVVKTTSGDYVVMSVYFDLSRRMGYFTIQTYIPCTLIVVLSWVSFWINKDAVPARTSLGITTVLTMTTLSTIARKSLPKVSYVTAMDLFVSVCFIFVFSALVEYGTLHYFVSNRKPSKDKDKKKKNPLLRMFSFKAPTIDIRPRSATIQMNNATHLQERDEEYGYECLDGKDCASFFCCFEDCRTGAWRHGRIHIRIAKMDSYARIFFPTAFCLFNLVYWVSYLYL

Entries after “also recorded” stand apart in the source; their conditions may differ. Where two headings read alike, the source gives them in different places.

T1 sequence (P19969 32-464 limits assumed): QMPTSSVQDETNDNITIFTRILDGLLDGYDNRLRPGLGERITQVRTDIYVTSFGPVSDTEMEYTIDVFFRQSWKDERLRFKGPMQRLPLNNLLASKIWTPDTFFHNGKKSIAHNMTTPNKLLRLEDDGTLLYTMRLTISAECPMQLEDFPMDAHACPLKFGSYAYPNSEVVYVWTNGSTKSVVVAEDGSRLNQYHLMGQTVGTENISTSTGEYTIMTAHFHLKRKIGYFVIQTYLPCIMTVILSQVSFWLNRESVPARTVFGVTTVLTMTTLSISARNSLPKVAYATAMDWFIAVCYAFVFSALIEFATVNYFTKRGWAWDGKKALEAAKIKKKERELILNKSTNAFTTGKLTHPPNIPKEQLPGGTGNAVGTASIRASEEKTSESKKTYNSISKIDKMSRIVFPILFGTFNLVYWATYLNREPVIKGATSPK
T1 sequence (P18508 39-466): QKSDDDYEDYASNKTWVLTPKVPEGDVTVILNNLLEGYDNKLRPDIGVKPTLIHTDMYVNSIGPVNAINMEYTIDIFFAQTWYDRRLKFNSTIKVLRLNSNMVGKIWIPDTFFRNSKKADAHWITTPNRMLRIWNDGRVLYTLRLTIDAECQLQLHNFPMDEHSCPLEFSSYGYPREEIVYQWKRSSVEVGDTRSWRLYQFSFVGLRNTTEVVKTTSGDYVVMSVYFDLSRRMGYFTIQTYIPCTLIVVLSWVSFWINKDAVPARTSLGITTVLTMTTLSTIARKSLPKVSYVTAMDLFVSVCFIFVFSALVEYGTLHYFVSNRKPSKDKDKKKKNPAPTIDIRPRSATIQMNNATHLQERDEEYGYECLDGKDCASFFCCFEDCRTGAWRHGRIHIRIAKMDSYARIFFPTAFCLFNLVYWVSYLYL

For the compound `COC(=O)c1c(-c2ccccc2)cnnc1-c1ccccc1` [methyl 3,5-diphenylpyridazine-4-carboxylate], in data set [1] (dose from 0.1 to 1 mg/kg), the “increase in hippocampal exposure” value was found to be 12 fold. Further, in data set [1] (dose from 1 to 10 mg/kg), the “increase in hippocampal exposure” value is about 5 fold and the “increase in plasma exposure” value is 12 fold. The “memory performance relative to vehicle control” value in the data set with aged-impaired (AI) rats (t(7)=4.233, p=0.004) is on record as “significantly improved memory performance”. For the same compound, the “average no. of errors ± SEM in retention test” value in the data set with aged-impaired (AI) rats (two-hour delay) was 1.31±0.40. Further, at GABAAα5 receptor (0.01-10 mg/kg, i.v.), the “effect on Ro 15-4513 binding in hippocampus” value is recorded as “blocked the binding; also recorded: dose-dependently reduced” and the “effect on cerebellum levels of Ro 15-4513” value is recorded as “did not affect binding; also recorded: without affecting”. Further, the “GABAA α5 receptors occupied at exposures behaviorally active in aged-impaired rats” value on GABAAα5 receptor (hippocampus, FIG. 4) is “about 32%”. The “ED50 of receptor occupancy, ratio method” value at GABAAα5 receptor (i.v.) amounted to 1.8 mg/kg. Moreover, on GABAAα5 receptor (rat, in vivo), the “GABAA α5 receptor occupancy, dose dependence” value is reported as “dose-dependent increase”. At GABAAα5 receptor (rat, iv, 10 mg/kg), this compound came in with a receptor occupancy at 10 mg/kg of over 90%. The ED50 at GABAAα5 receptor (rat, iv, read-out: ED50 of receptor occupancy, using L-755,608 to define occupancy) stood at 1.1 mg/kg. Also, the “α5 in vitro efficacy (EC20)” value at α5-containing GABAA R was “+27”.
